According to patent publication US10683299B2, “Pyrazolopyrazine and triazolopyrazine compounds for the treatment of infectious diseases” (Hoffmann-La Roche Inc., priority 2017, dated 2020):
pEC50: −log10 of the molar value.

These compounds were tested on HBV replication in HepG2.2.15 cells (assay: HBV inhibition assay in HepG2.2.15 cells (extracellular HBV DNA by qPCR)). Settings: Hepatitis B virus, HepG2.2.15, 120 h, five days after compound treatment, extracellular HBV DNA in culture supernatant by qPCR, read-out: EC50 (effective compound concentration at which HBV replication was inhibited by 50%).
Format: cell-based, Hepatitis B virus
Description: HepG2.2.15 is a stably-transfected cell line containing the HBV genome. It is derived from the hepatoblastoma cell line Hep G2 (American Type Culture Collection, ATCC® HB-8065™) by the published procedures described in reference: M A Selles et al. Proc. Natl. Acad. Sci. USA 1987, 84, 1005-1009. The cell line was maintained in Dulbecco's modified Eagle's medium and nutrient mixture F-12 (DMEM/F-12, Gibco, Cat. #: 11320-033) supplemented with 10% fetal bovine serum (Gibco, Cat. #:10099-141), 100 U/mL penicillin, 100 μg/mL streptomycin (Gibco, Cat. #:15140-122), and 0.3 mg/mL of G418 Sulfate (Gibco, Cat. #: 10131-027).
HepG2.2.15 cells were seeded into 96-well plates at a density of 3×10^4 cells per well in culture media of 100 μL DMEM/F-12 supplemented with 2.5% fetal bovine serum, 100 U/mL penicillin, 100 μg/mL streptomycin and cultured overnight at 37° C. The test compounds were serially half-log diluted in DMSO, then diluted 100 times in culture media. 100 μL culture media containing diluted compounds were added into the plates to reach 0.5% final concentration of DMSO in every well. Five days after compound treatment, culture supernatant was collected for further analysis.
For quantitative PCR detection of extracellular HBV DNA, culture supernatant was processed by 500 μg/mL Proteinase K (Sigma, Cat. #:P2308) digestion at 50° C. for 1 hour. After heat inactivation of the enzyme at 95° C. for 15 minutes, the samples were subjected to HBV DNA quantification by qPCR. The effective compound concentration at which HBV replication was inhibited by 50% (EC50) was determined.

Question: How did the pEC50 turn out when C[C@H]1Cn2ncc(N3CCNS3(=O)=O)c2CN1C(=O)Nc1cc(F)c(F)c(F)c1 [Example 19, (6S)-3-(1,1-dioxo-1,2,5-thiadiazolidin-2-yl)-6-methyl-N-(3,4,5-trifluorophenyl)-6,7-dihydro-4H-pyrazolo[1,5-a]pyrazine-5-carboxamide] was run?
Answer: 7.85

Question: C[C@H]1Cn2ncc(N3CCOCS3(=O)=O)c2CN1C(=O)Nc1cc(F)c(F)c(F)c1 [Example 24, (6S)-3-(3,3-dioxo-1,3,4-oxathiazinan-4-yl)-6-methyl-N-(3,4,5-trifluorophenyl)-6,7-dihydro-4H-pyrazolo[1,5-a]pyrazine-5-carboxamide] was tested. Which pEC50 did it give?
Answer: 7.96

Question: With CC1C(O)CS(=O)(=O)N1c1cnn2c1CN(C(=O)Nc1ccnc(C(F)F)c1)[C@@H](C)C2 (stereo partly drawn) [Example 29, (6S)—N-[2-(difluoromethyl)-4-pyridyl]-3-(4-hydroxy-3-methyl-1,1-dioxo-1,2-thiazolidin-2-yl)-6-methyl-6,7-dihydro-4H-pyrazolo[1,5-a]pyrazine-5-carboxamide] as the compound, how does the pEC50 read?
Answer: 6.49

Question: How did the pEC50 turn out when C[C@H]1Cn2ncc(N3CCCS3(=O)=O)c2CN1C(=O)Nc1ccnc(Cl)c1 [Example 2, (6S)—N-(2-chloro-4-pyridyl)-3-(1,1-dioxo-1,2-thiazolidin-2-yl)-6-methyl-6,7-dihydro-4H-pyrazolo[1,5-a]pyrazine-5-carboxamide] was run?
Answer: 7.10

Question: COC1CS(=O)(=O)N(c2cnn3c2CN(C(=O)Nc2cc(F)c(F)c(F)c2)[C@@H](C)C3)C1C (stereo partly drawn) [Example 31, (6S)-3-(4-methoxy-3-methyl-1,1-dioxo-1,2-thiazolidin-2-yl)-6-methyl-N-(3,4,5-trifluorophenyl)-6,7-dihydro-4H-pyrazolo[1,5-a]pyrazine-5-carboxamide] was tested. Which pEC50 did it give?
Answer: 8.01

Question: How did the pEC50 turn out when C[C@H]1Cn2ncc(N3CCCS3(=O)=O)c2CN1C(=O)Nc1ccc2ncsc2c1 [Example 9, (6S)—N-(1,3-benzothiazol-6-yl)-3-(1,1-dioxo-1,2-thiazolidin-2-yl)-6-methyl-6,7-dihydro-4H-pyrazolo[1,5-a]pyrazine-5-carboxamide] was run?
Answer: 6.59

Question: Cc1cc(NC(=O)N2Cc3c(N4CCCS4(=O)=O)cnn3C[C@@H]2C)ccc1F [Example 4, (6S)-3-(1,1-dioxo-1,2-thiazolidin-2-yl)-N-(4-fluoro-3-methyl-phenyl)-6-methyl-6,7-dihydro-4H-pyrazolo[1,5-a]pyrazine-5-carboxamide] was tested. Which pEC50 did it give?
Answer: 8.22

Question: How did the pEC50 turn out when C[C@H]1Cn2ncc(N3CC(O)CNS3(=O)=O)c2CN1C(=O)Nc1cc(F)c(F)c(F)c1 (stereo partly drawn) [Example 26, (6S)-3-(4-hydroxy-1,1-dioxo-1,2,6-thiadiazinan-2-yl)-6-methyl-N-(3,4,5-trifluorophenyl)-6,7-dihydro-4H-pyrazolo[1,5-a]pyrazine-5-carboxamide] was run?
Answer: 6.89

Question: C[C@H]1Cn2ncc(N3CC4COCCN4S3(=O)=O)c2CN1C(=O)Nc1cc(F)c(F)c(F)c1 (stereo partly drawn) [Example 12, (6S)-3-(1,1-dioxo-3a,4,6,7-tetrahydro-3H-[1,2,5]thiadiazolo[3,2-c][1,4]oxazin-2-yl)-6-methyl-N-(3,4,5-trifluorophenyl)-6,7-dihydro-4H-pyrazolo[1,5-a]pyrazine-5-carboxamide] was tested. Which pEC50 did it give?
Answer: 7.40

Question: With CC(=O)N1CCN(c2cnn3c2CN(C(=O)Nc2cc(F)c(F)c(F)c2)[C@@H](C)C3)S(=O)(=O)C1 [Example 15, (6S)-3-(5-acetyl-1,1-dioxo-1,2,5-thiadiazinan-2-yl)-6-methyl-N-(3,4,5-trifluorophenyl)-6,7-dihydro-4H-pyrazolo[1,5-a]pyrazine-5-carboxamide] as the compound, how does the pEC50 read?
Answer: 7.59

Question: With CC1CCS(=O)(=O)N1c1cnn2c1CN(C(=O)Nc1cc(F)c(F)c(F)c1)[C@@H](C)C2 (stereo partly drawn) [Example 16, (6S)-6-methyl-3-(3-methyl-1,1-dioxo-1,2-thiazolidin-2-yl)-N-(3,4,5-trifluorophenyl)-6,7-dihydro-4H-pyrazolo[1,5-a]pyrazine-5-carboxamide] as the compound, how does the pEC50 read?
Answer: 8.05

Question: C[C@H]1Cn2ncc(N3CCC[S+]3[O-])c2CN1C(=O)Nc1cc(F)c(F)c(F)c1 (stereo partly drawn) [Example 17, (6S)-6-methyl-3-(1-oxo-1,2-thiazolidin-2-yl)-N-(3,4,5-trifluorophenyl)-6,7-dihydro-4H-pyrazolo[1,5-a]pyrazine-5-carboxamide] was tested. Which pEC50 did it give?
Answer: 7.07

Question: How did the pEC50 turn out when C[C@H]1Cn2ncc(N3CCCS3(=O)=O)c2CN1C(=O)Nc1ccc(F)c(C#N)c1 [Example 5, (6S)—N-(3-cyano-4-fluoro-phenyl)-3-(1,1-dioxo-1,2-thiazolidin-2-yl)-6-methyl-6,7-dihydro-4H-pyrazolo[1,5-a]pyrazine-5-carboxamide] was run?
Answer: 7.85

Question: C[C@H]1Cn2ncc(N3CCCS3(=O)=O)c2CN1C(=O)NCc1ccsc1 [Example 34, (6S)-3-(1,1-dioxo-1,2-thiazolidin-2-yl)-6-methyl-N-(3-thienylmethyl)-6,7-dihydro-4H-pyrazolo[1,5-a]pyrazine-5-carboxamide] was tested. Which pEC50 did it give?
Answer: 7.00

Question: With C[C@H]1Cn2ncc(N3CCCS3(=O)=O)c2CN1C(=O)Nc1ccccc1F [Example 8, (6S)-3-(1,1-dioxo-1,2-thiazolidin-2-yl)-N-(2-fluorophenyl)-6-methyl-6,7-dihydro-4H-pyrazolo[1,5-a]pyrazine-5-carboxamide] as the compound, how does the pEC50 read?
Answer: 6.52

Question: With C[C@H]1Cn2ncc(N3CCN(C(=O)OCc4ccccc4)CS3(=O)=O)c2CN1C(=O)Nc1cc(F)c(F)c(F)c1 [Example 13, Benzyl 2-[(6S)-6-methyl-5-[(3,4,5-trifluorophenyl)carbamoyl]-6,7-dihydro-4H-pyrazolo[1,5-a]pyrazin-3-yl]-1,1-dioxo-1,2,5-thiadiazinane-5-carboxylate] as the compound, how does the pEC50 read?
Answer: 7.28

Question: How did the pEC50 turn out when C[C@H]1Cn2ncc(N3CCCS3(=O)=O)c2CN1C(=O)Nc1ccsc1 [Example 10, (6S)-3-(1,1-dioxo-1,2-thiazolidin-2-yl)-6-methyl-N-(3-thienyl)-6,7-dihydro-4H-pyrazolo[1,5-a]pyrazine-5-carboxamide] was run?
Answer: 6.24

Question: How did the pEC50 turn out when C[C@H]1Cn2ncc(N3CCS3(=O)=O)c2CN1C(=O)Nc1cc(F)c(F)c(F)c1 [Example 25, (6S)-3-(1,1-dioxothiazetidin-2-yl)-6-methyl-N-(3,4,5-trifluorophenyl)-6,7-dihydro-4H-pyrazolo[1,5-a]pyrazine-5-carboxamide] was run?
Answer: 6.85

Question: With C[C@H]1Cn2ncc(N3CCN(C)S3(=O)=O)c2CN1C(=O)Nc1cc(F)c(F)c(F)c1 [Example 20, (6S)-6-methyl-3-(5-methyl-1,1-dioxo-1,2,5-thiadiazolidin-2-yl)-N-(3,4,5-trifluorophenyl)-6,7-dihydro-4H-pyrazolo[1,5-a]pyrazine-5-carboxamide] as the compound, how does the pEC50 read?
Answer: 7.77

Question: With C[C@H]1Cn2ncc(N3CCCS3(=O)=O)c2CN1C(=O)Nc1ccc(F)c(C(F)(F)F)c1 [Example 7, (6S)-3-(1,1-dioxo-1,2-thiazolidin-2-yl)-N-[4-fluoro-3-(trifluoromethyl)phenyl]-6-methyl-6,7-dihydro-4H-pyrazolo[1,5-a]pyrazine-5-carboxamide] as the compound, how does the pEC50 read?
Answer: 8.01

Question: How did the pEC50 turn out when C[C@H]1Cn2ncc(N3CCCS3(=O)=O)c2CN1C(=O)Nc1cc(F)c(F)c(F)c1 [Example 1, (6S)-3-(1,1-dioxo-1,2-thiazolidin-2-yl)-6-methyl-N-(3,4,5-trifluorophenyl)-6,7-dihydro-4H-pyrazolo[1,5-a]pyrazine-5-carboxamide] was run?
Answer: 8.34

Question: How did the pEC50 turn out when C[C@H]1Cn2ncc(N3CC(O)CS3(=O)=O)c2CN1C(=O)Nc1cc(F)c(F)c(F)c1 (stereo partly drawn) [Example 18, (6S)-3-(4-hydroxy-1,1-dioxo-1,2-thiazolidin-2-yl)-6-methyl-N-(3,4,5-trifluorophenyl)-6,7-dihydro-4H-pyrazolo[1,5-a]pyrazine-5-carboxamide] was run?
Answer: 7.92

Question: CC1C(Oc2ncccn2)CS(=O)(=O)N1c1cnn2c1CN(C(=O)Nc1cc(F)c(F)c(F)c1)[C@@H](C)C2 (stereo partly drawn) [Example 30, (6S)-6-methyl-3-(3-methyl-1,1-dioxo-4-pyrimidin-2-yloxy-1,2-thiazolidin-2-yl)-N-(3,4,5-trifluorophenyl)-6,7-dihydro-4H-pyrazolo[1,5-a]pyrazine-5-carboxamide] was tested. Which pEC50 did it give?
Answer: 8.46

Same assay, conditions: five days after compound treatment, extracellular HBV DNA in culture supernatant by qPCR, read-out: EC50 (effective compound concentration at which HBV replication was inhibited by 50%)

Question: How did the pEC50 turn out when CC1Cn2nnc(N3CCCS3(=O)=O)c2CN1C(=O)Nc1cc(F)c(F)c(F)c1 (single isomer, unassigned) [Example 33-1, 3-(1,1-dioxo-1,2-thiazolidin-2-yl)-6-methyl-N-(3,4,5-trifluorophenyl)-6,7-dihydro-4H-triazolo[1,5-a]pyrazine-5-carboxamide] was run?
Answer: 7.62

Question: With CC1Cn2nnc(N3CCCS3(=O)=O)c2CN1C(=O)Nc1cc(F)c(F)c(F)c1 (single isomer, unassigned) [Example 33-2, 3-(1,1-dioxo-1,2-thiazolidin-2-yl)-6-methyl-N-(3,4,5-trifluorophenyl)-6,7-dihydro-4H-triazolo[1,5-a]pyrazine-5-carboxamide] as the compound, how does the pEC50 read?
Answer: 6.39
